How the values were obtained:
RVH-421 (Melanoma) [1] = assay: combination Emax (second highest fraction inhibited in the dose matrix, 72 h); higher = more inhibition; extreme values may be limits of the assay
In short: (§1)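 Cell lines grown in DMEM/F12 or RPMI with 10% FBS were plated in 1536-well plates and held 24 hours at 37°C, 5% CO2 before 72 hours of exposure to two-drug dose matrices, with DMSO typically at 0.2%. CellTiter-Glo 2.0 luminescence gave viability, which was converted to inhibition. Vehicle wells were set to 0 and blank wells to 1. Combination Emax is the second-highest inhibition in the matrix, and Bliss excess is the observed combination effect minus the expected EA + EB − EA·EB, where EA and EB are the single-agent effects.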

[2] = system: SBC-5 (Small Cell Lung Carcinoma); assay: Bliss excess, mean over the matrix (fraction); higher = more synergy
In short: as §1

[3] = system: NCI-H2170 (Squamous Cell Lung Carcinoma); assay: as above
In short: as §1

[4] = system: OCI-M1 (Acute Myeloid Leukemia); assay: as above
In short: as §1

[5] = system: IGROV-1 (Ovarian Carcinoma); assay: as above
In short: as §1

[6] = system: NTERA-2-cl-D1 (Other Solid Carcinomas); assay: as above
In short: as §1

HT-144 (Melanoma) = assay: as above
In short: as §1

[7] = system: BT-474 (Breast Carcinoma); assay: as above
In short: as §1

[8] = system: JJN-3 (Plasma Cell Myeloma); assay: as above
In short: as §1

[9] = system: NCI-H1944 (Lung Adenocarcinoma); assay: as above
In short: as §1

[10] = system: HT-3 (Cervical Carcinoma); assay: as above
In short: as §1

[11] = system: GRANTA-519 (B-Cell Non-Hodgkin's Lymphoma); assay: as above
In short: as §1

[12] = system: SUP-HD1 (Hodgkin's Lymphoma); assay: as above
In short: as §1

[13] = system: NCI-H1975 (Lung Adenocarcinoma); assay: as above
In short: as §1

[14] = system: RS4-11 (B-Lymphoblastic Leukemia); assay: as above
In short: as §1

RVH-421 (Melanoma) [15] = assay: as above
In short: as §1

[16] = system: Daudi (Burkitt's Lymphoma); assay: as above
In short: as §1

[17] = system: NCI-H1048 (Small Cell Lung Carcinoma); assay: as above
In short: as §1
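Throughout, for Bliss excess, mean over the matrix: after 72 h of two-drug dosing.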

Row | Structure (SMILES) | combination Emax (RVH-421 (Melanoma) [1]) | Bliss excess [2] | Bliss excess [3] | Bliss excess [4] | Bliss excess [5] | Bliss excess [6] | Bliss excess (HT-144 (Melanoma)) | Bliss excess [7] | Bliss excess [8] | Bliss excess [9] | Bliss excess [10] | Bliss excess [11] | Bliss excess [12] | Bliss excess [13] | Bliss excess [14] | Bliss excess (RVH-421 (Melanoma) [15]) | Bliss excess [16] | Bliss excess [17]
1 | CN(CCO)CC[C@H](CSc1ccccc1)Nc1ccc(S(=O)(=O)NC(=O)c2ccc(N3CCC([C@@H](O)c4ccccc4-c4ccc(Cl)cc4)CC3)cc2)cc1S(=O)(=O)C(F)(F)F [AZD4320] + C1CN(CCC1(C(=O)N[C@@H](CCO)C2=CC=C(C=C2)Cl)N)C3=NC=NC4=C3C=CN4 [Capivasertib] (first compound max 1 µM, 7x7, partner max 3 µM) | 0.486 | -0.0207 | -0.023 | -0.0161 | -0.0385 | 0.0075 | -0.0412 | -0.0487 | -0.0265 | -0.0508 | -0.0593 | -0.0649 | -0.022 | -0.0459 | 0.0024 | -0.0454 | -0.0512 | 0.0513
2 | CN(CCO)CC[C@H](CSc1ccccc1)Nc1ccc(S(=O)(=O)NC(=O)c2ccc(N3CCC([C@@H](O)c4ccccc4-c4ccc(Cl)cc4)CC3)cc2)cc1S(=O)(=O)C(F)(F)F [AZD4320] + CC(=O)O[C@H]1C(=O)[C@@]2(C)[C@H]([C@H](OC(=O)c3ccccc3)[C@]3(O)C[C@H](OC(=O)[C@H](O)[C@@H](NC(=O)c4ccccc4)c4ccccc4)C(C)=C1C3(C)C)[C@]1(OC(C)=O)CO[C@@H]1C[C@@H]2O [Paclitaxel] (first compound max 1 µM, 7x7, partner max 3 µM) |  |  |  |  |  | 0.0025 |  |  |  |  |  |  |  |  |  |  |  | 
3 | CN(CCO)CC[C@H](CSc1ccccc1)Nc1ccc(S(=O)(=O)NC(=O)c2ccc(N3CCC([C@@H](O)c4ccccc4-c4ccc(Cl)cc4)CC3)cc2)cc1S(=O)(=O)C(F)(F)F [AZD4320] + CCN(CCO)CCCOc1ccc2c(Nc3cc(CC(=O)Nc4cccc(F)c4)[nH]n3)ncnc2c1 [AZD2811] (first compound max 1 µM, 7x7, partner max 1 µM) | 0.196 | -0.0075 | -0.051 | 0.0074 | 0.0206 | 0.159 | 0.0304 | 0.0081 | 0.151 | 0.0026 |  | 0.191 | 0.0476 | -0.0226 | -0.0011 | -0.0297 | 0.0078 | 0.139
4 | CN(CCO)CC[C@H](CSc1ccccc1)Nc1ccc(S(=O)(=O)NC(=O)c2ccc(N3CCC([C@@H](O)c4ccccc4-c4ccc(Cl)cc4)CC3)cc2)cc1S(=O)(=O)C(F)(F)F [AZD4320] + C[C@@H]1COCCN1C2=NC(=NC(=C2)C3(CC3)[S@](=N)(=O)C)C4=C5C=CNC5=NC=C4 [AZD6738] (first compound max 1 µM, 7x7, partner max 10 µM) | 0.387 | -0.0511 | -0.0478 | 0.0051 | -0.0353 | -0.0301 | -0.0385 | -0.0901 | 0.0041 | -0.0227 | -0.0285 | -0.0075 | -0.0207 | -0.0134 | 0.026 | -0.0511 | -0.0403 | 0.0634
5 | CN(CCO)CC[C@H](CSc1ccccc1)Nc1ccc(S(=O)(=O)NC(=O)c2ccc(N3CCC([C@@H](O)c4ccccc4-c4ccc(Cl)cc4)CC3)cc2)cc1S(=O)(=O)C(F)(F)F [AZD4320] + C[C@@H](Nc1cc(F)cc(F)c1)c1cc(C(=O)N(C)C)cc2c(=O)cc(N3CCOCC3)oc12 [AZD8186] (first compound max 1 µM, 7x7, partner max 3 µM) | 0.464 | 0.0591 | 0.0284 | 0.0278 | 0.042 | 0.0543 | 0.0944 | 0.0516 | 0.0409 | -0.0426 | 0.0383 | 0.0128 | 0.0322 | 0.0261 | 0.0239 | 0.0798 | 0.0555 | 0.0388
6 | CN(CCO)CC[C@H](CSc1ccccc1)Nc1ccc(S(=O)(=O)NC(=O)c2ccc(N3CCC([C@@H](O)c4ccccc4-c4ccc(Cl)cc4)CC3)cc2)cc1S(=O)(=O)C(F)(F)F [AZD4320] + Cc1cc2ncnn2cc1Nc1ncc2c(n1)n(C1CCOCC1)c(=O)n2C [AZD7648] (first compound max 1 µM, 7x7, partner max 10 µM) | 0.211 | -0.032 | -0.006 | 0.0138 | 0.0266 | 0.0408 | -0.0122 | -0.0628 | 0.0461 | 0.0102 | -0.0403 | 0.0049 | 0.0039 | -0.0283 | -0.0148 | -0.0345 | -0.0115 | 0.0256
7 | CN(CCO)CC[C@H](CSc1ccccc1)Nc1ccc(S(=O)(=O)NC(=O)c2ccc(N3CCC([C@@H](O)c4ccccc4-c4ccc(Cl)cc4)CC3)cc2)cc1S(=O)(=O)C(F)(F)F [AZD4320] + Nc1ccn([C@@H]2O[C@H](CO)[C@@H](O)C2(F)F)c(=O)n1 [Gemcitabine] (first compound max 1 µM, 7x7, partner max 0.3 µM) |  |  |  |  |  | -0.0239 |  |  |  |  |  |  |  |  |  |  |  | 
8 | Cc1cc2ncnn2cc1Nc1ncc2c(n1)n(C1CCOCC1)c(=O)n2C [AZD7648] + COc1cc([C@@H]2c3cc4c(cc3[C@@H](O[C@@H]3O[C@@H]5CO[C@@H](C)O[C@H]5[C@H](O)[C@H]3O)[C@H]3COC(=O)[C@H]23)OCO4)cc(OC)c1O [Etoposide] (first compound max 10 µM, 7x7, partner max 10 µM) |  |  |  |  |  | 0.137 |  |  |  |  |  |  |  |  |  |  |  | 
9 | Cc1nc(Nc2ncc(C(=O)Nc3c(C)cccc3Cl)s2)cc(N2CCN(CCO)CC2)n1 [Dasatinib] + CC(=O)Nc1cccc(-n2c(=O)n(C3CC3)c(=O)c3c(Nc4ccc(I)cc4F)n(C)c(=O)c(C)c32)c1 [Trametinib] (first compound max 2 µM, 7x7, partner max 1 µM) |  | 0.025 | -0.0593 | 0.0346 | -0.0554 | 0.0638 | -0.0825 | -0.0493 | 0.0148 | 0.0343 | -0.0594 | -0.0711 | -0.0782 | 0.0302 | -0.0685 |  | -0.0221 | -0.0669
10 | COc1cc2ncnc(Nc3ccc(F)c(Cl)c3)c2cc1OCCCN1CCOCC1 [Gefitinib] + CC(C)n1c(=O)n(C)c2cnc3cc(F)c(-c4ccc(OCCCN5CCCCC5)nc4)cc3c21 [AZD1390] (first compound max 10 µM, 7x7, partner max 0.3 µM) |  | -0.0649 | -0.0867 | -0.065 | -0.0824 | -0.0643 | -0.0682 | -0.0866 | -0.0185 | -0.0668 | -0.0456 | -0.0689 | -0.0683 | -0.0676 | -0.0484 |  | -0.0688 | -0.0556
11 | N#Cc1cnc(Nc2cc(NC[C@H]3CNCCO3)c(C(F)(F)F)cn2)cn1 [SRA737] + C=CCn1c(=O)c2cnc(Nc3ccc(N4CCN(C)CC4)cc3)nc2n1-c1cccc(C(C)(C)O)n1 [AZD1775] (first compound max 10 µM, partner max 1 µM) |  |  |  |  |  | 0.0209 |  |  |  |  |  |  |  |  |  |  |  | 
12 | N#Cc1cnc(Nc2cc(NC[C@H]3CNCCO3)c(C(F)(F)F)cn2)cn1 [SRA737] + CCc1c2c(nc3ccc(O)cc13)-c1cc3c(c(=O)n1C2)COC(=O)[C@]3(O)CC [SN-38] (first compound max 10 µM, 7x7, partner max 0.3 µM) |  |  |  |  |  | -0.0004 |  |  |  |  |  |  |  |  |  |  |  | 
13 | N#Cc1cnc(Nc2cc(NC[C@H]3CNCCO3)c(C(F)(F)F)cn2)cn1 [SRA737] + Nc1ccn([C@@H]2O[C@H](CO)[C@@H](O)C2(F)F)c(=O)n1 [Gemcitabine] (first compound max 10 µM, 7x7, partner max 0.3 µM) |  |  |  |  |  | 0.0301 |  |  |  |  |  |  |  |  |  |  |  | 
14 | N#Cc1cnc(Nc2cc(NC[C@H]3CNCCO3)c(C(F)(F)F)cn2)cn1 [SRA737] + O=c1[nH]cc(F)c(=O)[nH]1 [5-Fluorouracil] (first compound max 10 µM, 7x7, partner max 20 µM) |  |  |  |  |  | -0.0757 |  |  |  |  |  |  |  |  |  |  |  | 
15 | C[C@@H](c1ccc2nccn2c1)n1nnc2ncc(-c3cnn(C)c3)nc21 [Savolitinib] + CC1(C)CCC(CN2CCN(c3ccc(C(=O)NS(=O)(=O)c4ccc(NCC5CCOCC5)c([N+](=O)[O-])c4)c(Oc4cnc5[nH]ccc5c4)c3)CC2)=C(c2ccc(Cl)cc2)C1 [Venetoclax] (first compound max 1 µM, 7x7, partner max 1 µM) |  | -0.0451 | -0.0336 | -0.0215 | -0.04 | -0.0678 | -0.0569 | -0.0682 | -0.012 | -0.0328 | -0.0486 | -0.0822 | 0.034 | -0.0329 | -0.0566 |  | -0.0988 | -0.0419
16 | C[C@@H](c1ccc2nccn2c1)n1nnc2ncc(-c3cnn(C)c3)nc21 [Savolitinib] + CN(CC[C@H](CSC1=CC=CC=C1)NC2=C(C=C(C=C2)S(=O)(=O)NC(=O)C3=CC=C(C=C3)N4CCC(CC4)[C@H](C5=CC=CC=C5C6=CC=C(C=C6)Cl)O)S(=O)(=O)C(F)(F)F)CCO [AZD4320] (first compound max 1 µM, 7x7, partner max 1 µM) |  | -0.0003 | -0.0589 | -0.0212 | -0.0735 |  | -0.0287 | -0.0534 | -0.0374 | -0.0288 | -0.0238 | -0.044 | 0.0355 | -0.0555 | -0.0131 |  | -0.0219 | 0.0144
17 | C[C@@H](c1ccc2nccn2c1)n1nnc2ncc(-c3cnn(C)c3)nc21 [Savolitinib] + Cc1c2c(nn1C)CSCc1cc(n(C)n1)CSc1cc(c3ccccc3c1)OCCCc1c(C(=O)O)n(C)c3c-2c(Cl)ccc13 [AZD5991] (first compound max 1 µM, 7x7, partner max 1 µM) |  | 0.0286 | -0.0199 | 0.0026 | -0.0303 | -0.015 | -0.054 | -0.0595 | -0.0384 | -0.0112 | -0.0255 | -0.0338 | -0.05 | -0.0275 | -0.0406 |  | -0.0126 | 0.0012

— the supplement of paper PMC11061612
